Test results taken from patent US20070191311A1, “P2x receptor inhibitor” (priority 2004, published 2007).
Values belong to the compound of their own block, whether it stands above or below them.

Experiments:
[1] = biological target: T1, rat type P2X2/3 receptor (Rattus norvegicus, UniProt P49653+P49654); experiment: P2X2/3 receptor inhibitory activity ([14C]-guanidine uptake stimulated by αβ-me ATP in CHO cells); type: cell-based; details: for IC50: CHO cell expressing rat type P2X2/3 receptor, 4 μM αβ-me ATP, [14C]-guanidine, 15 minutes room temperature, read-out: IC50 (concentration which inhibits 50% of the function of P2X2/3 receptor); for P2X2/3,3 receptor inhibitory activity (in words): Table 1
T1 construct: expressed in transfected cells; host or cells: CHO cells (selected with G-418)
T1 sequence (P49653 1-472): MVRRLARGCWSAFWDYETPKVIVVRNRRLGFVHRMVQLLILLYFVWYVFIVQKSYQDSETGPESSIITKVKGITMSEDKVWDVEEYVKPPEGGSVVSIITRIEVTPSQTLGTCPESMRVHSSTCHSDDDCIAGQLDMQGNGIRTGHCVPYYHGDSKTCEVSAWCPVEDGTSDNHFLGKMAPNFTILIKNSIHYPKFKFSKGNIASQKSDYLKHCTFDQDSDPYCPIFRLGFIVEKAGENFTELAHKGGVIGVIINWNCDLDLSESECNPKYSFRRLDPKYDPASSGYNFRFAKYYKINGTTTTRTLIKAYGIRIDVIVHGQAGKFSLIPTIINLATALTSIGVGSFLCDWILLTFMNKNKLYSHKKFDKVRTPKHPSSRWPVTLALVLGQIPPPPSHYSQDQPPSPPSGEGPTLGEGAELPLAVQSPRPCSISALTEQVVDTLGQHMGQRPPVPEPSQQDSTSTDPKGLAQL
T1 sequence (P49654 1-397): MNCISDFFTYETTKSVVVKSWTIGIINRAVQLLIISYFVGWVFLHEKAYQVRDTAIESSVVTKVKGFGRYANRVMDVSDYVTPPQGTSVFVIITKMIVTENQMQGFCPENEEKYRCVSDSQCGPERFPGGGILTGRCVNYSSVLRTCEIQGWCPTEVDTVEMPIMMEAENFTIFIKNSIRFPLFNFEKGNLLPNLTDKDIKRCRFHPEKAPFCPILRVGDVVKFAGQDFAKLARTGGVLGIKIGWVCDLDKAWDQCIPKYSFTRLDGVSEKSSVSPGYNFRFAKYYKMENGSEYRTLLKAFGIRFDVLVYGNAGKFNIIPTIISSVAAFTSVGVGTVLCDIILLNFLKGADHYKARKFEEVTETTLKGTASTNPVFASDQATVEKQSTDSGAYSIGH
Experimental: On the day before the test, the resulting cells were inoculated onto a 96-well culture plate at a density of about 6×10^4 cells/well and cultured for 24 hours in the medium containing 2 units/ml of apyrase 2.

[2] = in vivo; cited from earlier work
[3] = tested on: cancer patients; details: clinical test; cited from earlier work
[4] = tested on: mice; experiment: αβ-me ATP induced pain behavior; type: in vivo; details: for αβ-me ATP induced pain behavior (total time of lifting and licking): 30 minutes before αβ-me ATP, significant difference to control
Experimental: 16 (2000). […] Total time of lifting (a behavior of lifting the administered side sole from the floor face) and licking (a behavior of licking and biting the administered side sole) occurred during 5 minutes just after the administration of αβ-me ATP was measured. […] Test on the statistical significant difference between the solvent administration group used as a control group and the test substance administration group was carried out using the Dunnett method.

[5] = tested on: patients of bone metastasis of breast cancer and bone metastasis of lung cancer; experiment: Clinical test in patients of bone metastasis of breast cancer and lung cancer; type: in vivo, human; details: 1 or 2 mg once in 2 weeks for 12 weeks; from the initial evaluation time (1st week)
[6] = tested on: mice; experiment: Acetic acid induced pain behavior (writhing); type: in vivo
Experimental: This test was carried out with reference to the method described in Pain, 96, p. […] After 30 minutes thereof, 0.6% acetic acid was intraperitoneally administered (10 ml/kg). Frequency of writhing (a body writhing behavior) occurred within a period of 15 minutes, starting from 2 minutes after the acetic acid administration until 17 minutes thereafter, was measured. The test was carried out twice as the test 1 and test 2. Test on the statistical significant difference between the solvent administration group used as a control group and the test substance administration group was carried out using the Dunnett method.

[7] = tested on: rat cancer pain model; details: continuously administered for 19 days; cited from earlier work
[8] = tested on: patients of multiple myeloma; details: oral 6 mg once a day; 24 weeks; cited from earlier work
[9] = tested on: mouse; experiment: Formalin induced pain behavior; type: in vivo
Experimental: The test substance or solvent was subcutaneously administered to each mouse at a volume of 10 ml/kg. After 30 minutes thereof, formalin was administered under the skin of one sole (2.0%, 20 μl/body). Total time of lifting (a behavior of lifting the administered side sole from the floor face) and licking (a behavior of licking and biting the administered side sole) occurred during every 5 minutes was measured over 30 minutes starting just after the administration of formalin. By defining the period of from 0 to 5 minutes after the formalin administration as a phase I (Phase I), and that of from 10 to 30 minutes as a phase II (Phase II), the total time of lifting and licking occurred in each phase was calculated.

Compound: O=P(O)(O)C(O)(Cn1ccnc1)P(=O)(O)O [zoledronate]
IC50 [1]: > 300 µM | P2X2/3,3 receptor inhibitory activity (in words) [1]: did not show the P2X2/3,3 receptor inhibitory activity | mechanical allodynia and mechanical hyperalgesia accompanied by cancer pain [7]: inhibit

Compound: trinitrophenyl (TNP)-ATP [TNP-ATP]
IC50 [1]: 0.18 µM

Compound: O=P(O)(O)C(O)(Cc1cnc2ccccn12)P(=O)(O)O [minodronic acid hydrate]
bone pain in multiple myeloma patients [8]: improved | used amount of an analgesic in multiple myeloma patients [8]: reduced | formalin induced pain behavior, Phase I (0 to 5 minutes) ([9]; 30 mg/kg s.c.): did not exert influence | formalin induced pain behavior, Phase II (10 to 30 minutes) ([9]; 30 mg/kg s.c.): suppressed | behavioral side effect at the time of the pain behavior observation ([9]; formalin test): not observed

Further lines, with some results ahead:

IC50 [1]: > 300 µM
Compound: O=P(O)(O)C(Cl)(Cl)P(=O)(O)O [clodronate]
P2X2/3,3 receptor inhibitory activity (in words) [1]: did not show the P2X2/3,3 receptor inhibitory activity | analgesic action in the tail-flick test [2]: dose-dependent analgesic action

IC50 [1]: 194 µM
Compound: Cc1ccc(C(=O)Nc2ccc(S(=O)(=O)O)c3cc(S(=O)(=O)O)cc(S(=O)(=O)O)c23)cc1NC(=O)c1cccc(NC(=O)Nc2cccc(C(=O)Nc3cc(C(=O)Nc4ccc(S(=O)(=O)O)c5cc(S(=O)(=O)O)cc(S(=O)(=O)O)c45)ccc3C)c2)c1 [suramin]
pain score in cancer patients [3]: reduction of pain score was observed

P2X2/3,3 receptor inhibitory activity (in words) [1]: good receptor inhibitory activity
Compound: O=P(O)(O)C(O)(Cc1cnc2ccccn12)P(=O)(O)O [minodronic acid, 1-hydroxy-2-(imidazo[1,2-a]pyridin-3-yl)ethane-1,1-bisphosphonic acid]
αβ-me ATP induced pain behavior (total time of lifting and licking) ([4]; 30 mg/kg i.p.): suppressed | αβ-me ATP induced pain behavior (total time of lifting and licking) ([4]; 10 to 50 mg/kg s.c.): suppressed | behavioral side effect at the time of the pain behavior observation ([4]; αβ-me ATP test): not observed | pain value (bone pain) in patients [5]: reducing tendency of pain value was observed | behavioral side effect at the time of the pain behavior observation ([6]; acetic acid test): not observed | writhing behavior (acetic acid induced) ([6]; s.c., 10 and 30 mg/kg, 0.6% acetic acid i.p.): dose-dependently suppressed

IC50 [1]: > 300 µM
Compound: NCCC(O)(P(=O)(O)O)P(=O)(O)O [pamidronate]
P2X2/3,3 receptor inhibitory activity (in words) [1]: did not show the P2X2/3,3 receptor inhibitory activity | analgesic action in the tail-flick test [2]: dose-dependent analgesic action
